# How the values were obtained:
# sox2 = assay: Western blot of stem cell marker protein sox2 in metformin-treated SK-N-BE(2) cells; assay type: cell-based, human; details: metformin 1, 10 and 20 mM, 2 days, vs untreated control
# Protocol: (§1) SH-SY5Y, IMR-32, SK-N-BE(2) and SKNF-1 human neuroblastoma cells were purchased from The American Type Culture Collection (ATCC; Manassas, Va.), and NGP cells were kind gift from Garrett M. Brodeur (The Children's Hospital of Philadelphia, Philadelphia, Pa.). Cells were maintained as monolayer in Dulbecco's Modified Eagle's Medium (DMEM) containing 10% fetal bovine serum (FBS; Atlanta Biologicals, Lawrenceville, Ga.) and 1% antibiotic-antimycotic solution (100 unit/ml penicillin, […]; Gibco, Grand Island, N.Y.) at 37° C. in a humidified incubator with 5% CO2. For all the experiments, cell culture passages from 4-12 were used.
# (§2) Cells, either from monolayer or from spheroids, were dissociated by trypsinization, washed with 1× phosphate buffered saline (PBS), pH 7.5, and lysed with 1× cell lysis buffer (Cell Signaling Technology, Danvers, Mass.) containing phenylmethylsulfonyl fluoride (PMSF) and protease inhibitors (aprotinin and leupeptin) for 30 min on ice. […] Protein concentration was determined by bicinchoninic acid method using BCA protein assay kit (Pierce/Thermo-scientific, Waltham, Mass.). Equal amount of proteins were diluted with 5×Laemmli samples loading buffer, boiled for five minutes, separated on sodium dodecyl sulfate (SDS)-polyacrylamide gel, and analyzed by Western blotting. […]
# nanog = assay: Western blot of stem cell marker protein nanog in metformin-treated SK-N-BE(2) cells; assay type: cell-based, human; details: metformin 1, 10 and 20 mM, 2 days, vs untreated control
# Protocol: as §1, §2
# oct4 = assay: Western blot of stem cell marker protein oct4 in metformin-treated SK-N-BE(2) cells; assay type: cell-based, human; details: metformin 1, 10 and 20 mM, 2 days, vs untreated control
# Protocol: as §1, §2
# SK-N-BE(2) cells [1] = assay: Immunofluorescence staining of cleaved caspase-3 and sox2 in SK-N-BE(2) monolayer cells; assay type: cell-based, human; details: metformin 10 mM, 2 days
# Protocol: Neuroblastoma cells grown in Lab-TekII chamber slides (Fisher Scientific, Pittsburgh, Pa.) were treated with metformin in complete culture medium. After treatments, cells were washed with 1×PBS, fixed with 4% paraformaldehyde/PBS for 20 min, and incubated in 1×PBS buffer containing 0.1M glycine and 0.3% Triton X-100 for 30 min at room temperature. Cells were washed with 1×PBS for 4 times (10 min each) and blocked with 5% immunoglobulin (IgG)-free bovine serum albumin (BSA; Jackson ImmunoResearch Laboratories, West Grove, Pa.) in 1×PBS for overnight at 4° C. Cells were incubated with antibodies raised against sox2, oct4 and nanog, and active form of caspase-3 diluted in 2.5% BSA+0.3% Triton X-100 in PBS for overnight at 4° C. Primary antibodies were detected with secondary antibodies conjugated with AlexaFluor-488 or AlexaFluor-568 for 2 h at room temperature. After washing with 1×PBS, cells were mounted with antifade Vectashield™ mounting media (Vector Laboratories, Burlingame, Calif.), and signals were visualized under Nikon™-E600 fluorescence microscope. Nuclei were stained with 4′, 6-diamidino-2-phenylindole (DAPI; Sigma). […]
# SK-N-BE(2) cells [2] = assay: Primary spheroid formation assay; assay type: cell-based, human; details: 20 days
# Protocol: (§3) For spheroid formation, adherent cells were trypsin digested (0.25% Trypsin-EDTA) for 3-4 min at 37° C., washed and suspended in the serum-free stem cell specific medium [DMEM/F-12 medium (Lonza, Switzerland) supplemented with 1% N-2 supplement, 2% B-27 without vitamin A, 20 ng/ml human recombinant epidermal growth factor (hrEGF), 20 ng/ml human recombinant basic fibroblast growth factor (bFGF) and 1% antibiotic-antimycotic solution; all from Gibco]. The dispersed single cells were plated at density of 1,000 cells/well in Costar ultra-low attachment six-well plates (Corning Inc., Corning, N.Y.), and treated with indicated concentrations of metformin. The stock solution of metformin (MP Biomedicals, Solon, Ohio) was freshly prepared in sterile triple distilled water before each experiment. Cells treated with equal volume of vehicle were used as control. Cell culture medium was changed on every fourth day. […]
# (§4) To test the effect of metformin in neuroblastoma spheroid formation, SK-N-BE(2) cells were grown in stem cell specific medium on ultra-low attachment plates and the growth of spheroid formation was monitored For spheroid formation assays, SK-N-BE(2) cells were seeded at density of 1000 cells per well in six-well plate in stem cell-specific medium with or without metformin (0.1, 0.5, 1, 10 and 20 mM). After 20 days, pictures of formed spheroids were taken and the number of spheroids equal to or larger than 100 μm in size (termed primary spheroids) was counted (FIG. 7 at A and B). […] Secondary spheroid formation (as an indicator of self-renewal potential of neuroblastoma spheres) was analyzed. After 20 days, the number of formed secondary spheroids (equal or larger than 100 μm in size) was counted and plotted (FIG. 7 at C).
# SK-N-BE(2) cells [3] = assay: Secondary spheroid formation assay (self-renewal); assay type: cell-based, human; details: metformin at lower concentration (0.1 mM), 20 days
# Protocol: as §3, with “metformin.” for “metformin. The stock solution of metformin (MP Biomedicals, Solon, Ohio) was freshly prepared in sterile triple distilled water before each experiment. Cells treated with equal volume of vehicle were used as control. Cell culture medium was changed on every fourth day.”
# as §4, with “After 20 days, the number of formed secondary spheroids (equal or larger than 100 μm in size) was counted and plotted (FIG. 7 at C).” left out
# SK-N-BE(2) spheroids = assay: Immunofluorescence of cleaved caspase-3 in SK-N-BE(2) spheroids; assay type: cell-based, human; details: metformin-treated SK-N-BE(2) spheroids
# Protocol: Neuroblastoma cells grown in Lab-TekII chamber slides (Fisher Scientific, Pittsburgh, Pa.) were treated with metformin in complete culture medium. After treatments, cells were washed with 1×PBS, fixed with 4% paraformaldehyde/PBS for 20 min, and incubated in 1×PBS buffer containing 0.1M glycine and 0.3% Triton X-100 for 30 min at room temperature. Cells were washed with 1×PBS for 4 times (10 min each) and blocked with 5% immunoglobulin (IgG)-free bovine serum albumin (BSA; Jackson ImmunoResearch Laboratories, West Grove, Pa.) in 1×PBS for overnight at 4° C. Cells were incubated with antibodies raised against sox2, oct4 and nanog, and active form of caspase-3 diluted in 2.5% BSA+0.3% Triton X-100 in PBS for overnight at 4° C. Primary antibodies were detected with secondary antibodies conjugated with AlexaFluor-488 or AlexaFluor-568 for 2 h at room temperature. After washing with 1×PBS, cells were mounted with antifade Vectashield™ mounting media (Vector Laboratories, Burlingame, Calif.), and signals were visualized under Nikon™-E600 fluorescence microscope. Nuclei were stained with 4′, 6-diamidino-2-phenylindole (DAPI; Sigma).
# [4] = test system: tumors generated from SK-N-BE(2) spheroids; assay: In vivo xenograft of tumors generated from SK-N-BE(2) spheroids; set-up: species or system athymic nude mice (nu/nu); details: 100 mg/kg daily by oral gavage, 21 days of treatment, nude mice
# Protocol: SK-N-BE(2) neuroblastoma spheroids (15-day-old) were dissociated by trypsinization, washed with stem cell specific medium and counted. 1×10^5 cells were mixed (1:1 volume) with EGF-reduced matrigel (BD Bioscience, San Jose, Calif.) to make total volume of 0.1 ml. The cell mixture (0.1 ml) was injected subcutaneously (s.c.) into flanks of 6-week-old female nude athymic mice (nu/nu mice; Charles River Laboratories, Wilmington, Mass.). The animals were housed at 25° C. with a 12-h light/12-h dark cycle in laminar flow cabinets under specific pathogen-free conditions and given sterile water and food ad libitum. Engrafted mice were inspected for tumor appearance, and tumor growth was measured on every fourth day using a caliper. Tumor volume was calculated using the ellipsoid formula (length×width×height×0.5). […]
# To assess whether metformin has inhibitory effects on the tumorigenicity of neuroblastoma stem cells, tumors were generated from neuroblastoma stem cells by inoculating tumor cells from SK-N-BE(2) spheroids (15-day-old) subcutaneously in to the flank region of athymic nude mice. […] The size of tumors was measured on every fourth day, and after 21 days of metformin treatment tumors were harvested and sizes were measured.
# SK-N-BE(2) tumors = assay: Immunohistochemistry of cleaved caspase-3 and sox2 in SK-N-BE(2) tumor sections; assay type: in vivo, athymic nude mice (nu/nu); details: tumors from mice treated with metformin 100 mg/kg daily oral
# Protocol: For tumor tissue, paraformaldehyde-fixed paraffin-embedded tumor sections (5 μm thick) were deparaffinized in xylene, rehydrated with sequential immersion in graded ethanol (100%, 95%, 85%, 70% and 50%). Antigen unmasking was carried out by boiling slides in 10 mM sodium citrate buffer, pH 6.0, at 95° C. for 30 min. After cooling down at room temperature, sections were incubated with 0.1M glycine+0.3% Triton X-100/PBS for 30 min, and were blocked with 10% IgG-free BSA in 1×PBS for overnight at 4° C. Sections were incubated with primary antibodies diluted in 5% IgG-free BSA+0.3% Triton X-100/PBS (1:100 dilution) for overnight at 4° C. Primary antibodies were detected as described in previous paragraph. Primary antibodies used were: sox2, oct4 and nanog, and active form of caspase-3.
# To determine if metformin inhibition of tumor growth resulted from apoptotic cell death in tumor stem cells, immunohistochemistry was performed by staining paraffin-embedded tumor sections with antibodies specific for active cleaved form of caspase-3 (an indicator of apoptosis) and stem cell specific marker sox2.
compound,measurement,setting,value
"CN(C)C(=N)NC(=N)N [metformin, N′,N′-dimethylbiguanide]",level of sox2 protein,sox2,dose dependently decreased
same,level of nanog protein,nanog,dose dependently decreased
same,oct4 protein expression,oct4,No change
same,cleaved caspase-3 signals (apoptotic cell death),SK-N-BE(2) cells [1],present in both sox2-expressing and sox2-nonexpressing cells
same,number of primary spheroids vs control,SK-N-BE(2) cells [2]; metformin 0.1 mM,similar
same,primary spheroid formation,SK-N-BE(2) cells [2]; metformin 0.5 mM and higher concentrations,reduced primary spheroid formation significantly
same,formation of primary spheroids (equal to or larger than 100 μm),"SK-N-BE(2) cells [2]; metformin 0.1, 0.5, 1, 10 and 20 mM, overall vs control",significantly decreased the formation of primary neuroblastoma spheroids in a dose dependent manner
same,secondary spheroid formation,SK-N-BE(2) cells [3],significantly inhibited secondary spheroid formation
same,cleaved caspase-3 signal in sox2-expressing cells of spheroids,SK-N-BE(2) spheroids,induced apoptotic death in spheroids
same,size of the subcutaneous tumor vs control,[4],less
same,cytoplasmic cleaved caspase-3 signals in tumor tissues,SK-N-BE(2) tumors,present

# — patent publication US20170049726A1, “METFORMIN IN TREATMENT OF NEUROBLASTOMA” (UNIVERSITY OF SOUTH CAROLINA, priority 2015, published 2017)
